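Method: 48-hour compound exposure of cells in 96-well plates, five concentrations, linear interpolation of endpoints. TGI: concentration producing complete growth inhibition.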
Legend:
Experiment in all cases: DTP human tumour cell line panel, 48 h
SN12C renal = tested on: SN12C renal
ACHN renal = tested on: ACHN renal
CAKI-1 renal = tested on: CAKI-1 renal
MDA-N = tested on: MDA-N
UO-31 renal = tested on: UO-31 renal
KM12 colon = tested on: KM12 colon
DU-145 prostate = tested on: DU-145 prostate
OVCAR-5 ovarian = tested on: OVCAR-5 ovarian
NCI/ADR-RES ovarian = tested on: NCI/ADR-RES ovarian
SR leukemia = tested on: SR leukemia
A549 NSCLC = tested on: A549 NSCLC
SW-620 colon = tested on: SW-620 colon
HOP-62 NSCLC = tested on: HOP-62 NSCLC
HOP-92 NSCLC = tested on: HOP-92 NSCLC
UACC-62 melanoma = tested on: UACC-62 melanoma
HT29 colon = tested on: HT29 colon
PC-3 prostate = tested on: PC-3 prostate

Row | Structure (SMILES) | TGI (SN12C renal) [µM] | TGI (ACHN renal) [µM] | TGI (CAKI-1 renal) [µM] | TGI (MDA-N) [µM] | TGI (UO-31 renal) [µM] | TGI (KM12 colon) [µM] | TGI (DU-145 prostate) [µM] | TGI (OVCAR-5 ovarian) [µM] | TGI (NCI/ADR-RES ovarian) [µM] | TGI (SR leukemia) [µM] | TGI (A549 NSCLC) [µM] | TGI (SW-620 colon) [µM] | TGI (HOP-62 NSCLC) [µM] | TGI (HOP-92 NSCLC) [µM] | TGI (UACC-62 melanoma) [µM] | TGI (HT29 colon) [µM] | TGI (PC-3 prostate) [µM]
1 | O=c1ccn2n1CCCCC2 | > 100 | > 100 | > 100 | > 100 | > 100 | > 100 | > 100 | > 100 | > 100 | > 100 | > 100 | > 100 | > 100 | > 100 | > 100 | > 100 | > 100
2 | Oc1c(C2=N[C@H]3CCCC[C@@H]3N2)ccc2ccccc12 | > 100 | > 100 | > 100 | > 100 | > 100 | > 100 | > 100 | > 100 | > 93.9 | > 100 | > 21.8 | > 100 | > 80.6 | > 100 | > 100 | > 100 | > 100
3 | CCOP(=O)(C=C=C(C)C)OCC | > 100 | > 100 | > 100 | > 100 |  | > 100 | > 100 | > 100 | > 100 | > 100 | > 100 | > 100 | > 100 | > 100 | > 100 | > 100 | > 100
4 | FC(F)(Sc1ccccc1)c1nc2ccccc2o1 | > 100 | > 100 | > 100 | > 100 | > 100 | > 100 | > 100 | > 100 | > 100 | 73.7 | > 100 | > 100 | > 100 | > 100 | > 100 | > 100 | > 100
5 | CC1(C)CN=C(Nc2cccc(C(F)(F)F)c2)S1 | > 100 | > 100 | > 100 | > 100 | > 100 | > 100 | > 100 | > 100 | > 100 | > 100 | > 100 | > 100 | > 100 | > 100 | > 100 | > 100 | > 100
6 | c1ccc2c(c1)Nc1nc3nonc3nc1N2 | > 100 | > 100 | > 100 | > 100 | > 100 | > 100 | > 100 | > 100 | > 100 | > 100 | > 100 | > 100 | > 100 | > 100 | > 100 | > 100 | > 100
7 | COc1cccc(N2C(=O)CSC2c2cc(OC)c(OC)c(OC)c2)c1 (stereo unspecified) | > 100 | > 100 | > 100 | 37.1 | > 100 | > 100 | 39.7 | > 100 | 91.4 | > 100 | > 100 | > 100 |  | > 100 | > 100 | > 100 | > 100
8 | CC(C)NC(=O)OCc1c(COC(=O)NC(C)C)n(C)c2c1ccc1ccccc12 | 5.3 | 2.82 | 1.94 | 4.22 | 4.09 | 15.5 | 14.4 | 7.43 | 7.39 | > 100 | 23.5 | 2.4 | 16.2 | 2.6 | 2.92 | 13 | 17.1
9 | COC(=O)C1(Cc2ccccc2)Cc2ccc3c(c2C1=O)CCC3 (stereo unspecified) | > 100 | > 100 | > 100 | > 86.4 | > 100 | > 100 | > 100 | > 100 | > 100 | > 73.4 | > 100 | > 100 | > 100 | > 73 | > 100 | > 89.6 | > 100
10 | CC(CO)C1=CC(C#CCOCc2ccccc2)N(C(=O)Oc2ccccc2)c2ccccc21 (stereo unspecified) | 68.6 | 36.3 | 76.1 | > 100 | > 100 | 82.9 | > 100 | > 100 | 63.3 | > 100 | > 100 | > 100 | > 100 | 61.7 | 22.9 | > 100 | > 100
11 | Cn1c2ccccc2c(=NNc2ccccc2C(=O)O)c2ccccc21 | 83.1 | 48.2 | 91.2 | 46.4 | 64.5 | 42.2 | > 100 | 85 | 60.8 | 44.6 | 77.2 | 84.8 | 75.4 | 67.6 | 54 | 38.1 | 42.3
12 | CCOC(=O)CCC(NC(=O)c1ccc(OCc2nc3ccccc3n3cccc23)cc1)C(=O)OCC (stereo unspecified) | > 100 | > 100 | > 100 | > 100 | > 100 | > 100 | > 100 | > 100 | > 100 | > 100 | > 100 | > 100 | > 100 | > 100 | > 100 | > 100 | > 100
13 | CCOC(=O)c1c(-c2ccc(OC)cc2)c(C#N)c(=S)n(C2OC(CO)C(O)C(O)C2O)c1-c1ccccc1 (stereo unspecified) | > 100 | > 100 | > 100 | > 100 | > 100 | > 100 | > 100 | > 100 | > 100 | > 100 | > 100 | > 100 | 80.7 | 32.8 | > 100 | > 100 | > 100
14 | CN(C)c1ccc(/C=C(\NC(=O)c2ccccc2)C2NC(Cc3c[nH]c4ccccc34)C(=O)O2)cc1 (stereo unspecified) | > 100 | > 100 | > 100 | > 100 | > 100 | > 100 | > 100 | > 100 | > 100 | > 100 | > 100 | > 100 | > 100 | > 69.3 | > 100 | > 100 | > 100
